Experimental data as given in patent publication US8598078B2, “Condensed anthran I lami de derivatives as insecticides” (Syngenta Crop Protection, LLC, priority 2007, dated 2013).
Like-named read-outs stand apart in the source and are kept apart here.

Columns and labels:
Format in all cases: in vivo
[1] = system: Plutella xylostella (diamond back moth); assay: Plutella xylostella (larvicide, feeding/residual contact activity, preventive), artificial diet MTP; conditions: 120 h, read-out: activity (larval mortality, antifeedant, growth regulation)
Protocol: Plutella xylostella (Diamond Back Moth)
(§1) (Larvicide, Feeding/Residual Contact Activity, Preventive)
24-well microtiter plate (MTP) with artificial diet was treated with test solutions by pipetting. After drying, the MTP's were infested with larvae (L2) (10-15 per well). After an incubation period of 5 days, samples were checked for larval mortality, antifeedant and growth regulation.

[2] = system: Heliothis virescens (tobacco budworm); assay: Activity against Heliothis virescens (ovo-larvicide, feeding/contact activity, curative), eggs on artificial diet; conditions: read-out: activity (egg mortality, larval mortality, growth regulation)
Protocol: Activity Against Heliothis virescens (Tobacco Budworm)
(Ovo-Larvicide, Feeding/Contact Activity, Curative)
Eggs (0-24 h old) were placed in 24-well microtiter plate on artificial diet and treated with test solutions by pipetting. After an incubation period of 4 days, samples were checked for egg mortality, larval mortality, and growth regulation.

[3] = system: Thrips tabaci (onion thrips); assay: Activity against Thrips tabaci (mixed population, feeding/residual contact activity, preventive), sunflower leaf discs; conditions: foliar, 144 h, read-out: activity (mortality and special effects)
Protocol: Activity Against Thrips tabaci (Onion Thrips)
(§2) (Mixed Population, Feeding/Residual Contact Activity, Preventive)
(§3) Sunflower leaf discs were placed on agar in a 24-well microtiter plate and sprayed with test solutions. After drying, the leaf discs were infested with a thrips population of mixed ages. After an incubation period of 6 days, samples were checked for mortality and special effects (e.g. phytotoxicity).

[4] = system: Myzus persicae (green peach aphid); assay: Activity against Myzus persicae (mixed population, feeding/residual contact activity, preventive), sunflower leaf discs; conditions: foliar, 144 h, read-out: activity (mortality and special effects)
Protocol: (§4) Activity Against Myzus persicae (Green Peach Aphid)
as §2
as §3, with “an aphid” for “a thrips”

[5] = system: Spodoptera littoralis (Egyptian cotton leafworm); assay: Activity against Spodoptera littoralis (larvicide, feeding/residual contact activity, preventive), cotton leaf discs; conditions: foliar, 72 h, read-out: activity (mortality, repellent effect, feeding behaviour, growth regulation)
Description: Activity Against Spodoptera littoralis (Egyptian Cotton Leafworm)
as §1
Cotton leaf discs were placed on agar in a 24-well microtiter plate and sprayed with test solutions. After drying, the leaf discs were infested with 5 L1 larvae. The samples were checked for mortality, repellent effect, feeding behaviour, and growth regulation 3 days after treatment.

[6] = system: Myzus persicae (green peach aphid); assay: Activity against Myzus persicae (mixed population, systemic/feeding activity, curative), pea seedling roots in test solution; conditions: 144 h, read-out: activity (mortality and special effects on the plant)
Description: as §4
(Mixed Population, Systemic/Feeding Activity, Curative)
Roots of pea seedlings, infested with an aphid population of mixed ages, were placed directly in the test solutions. 6 days after introduction, samples were checked for mortality and special effects on the plant.

[7] = system: Diabrotica balteata (corn root worm); assay: Diabrotica balteata (larvicide, feeding/residual contact activity, preventive), artificial diet MTP; conditions: 120 h, read-out: activity (larval mortality, antifeedant, growth regulation)
Protocol: Diabrotica balteata (Corn Root Worm)
as §1
24-well microtiter plate (MTP) with artificial diet was treated with test solutions by pipetting. After drying, the MTP's were infested with larvae (L2) (6-10 per well). After an incubation period of 5 days, samples were checked for larval mortality, antifeedant and growth regulation.

[8] = system: Nilaparvata lugens (brown rice planthopper); assay: Activity against Nilaparvata lugens (larvicide, feeding/contact), rice seedlings; conditions: read-out: activity (mortality, growth regulation, effects on the F1 generation)
Protocol: Activity Against Nilaparvata lugens (Brown Rice Planthopper)
(Larvicide, Feeding/Contact)
Rice seedlings were treated with the diluted test solutions in a spray chamber. After drying, they were infested with 20 N3 nymphs (2 replicates). 6-12 days after the treatment samples were checked for mortality, growth regulation, and effects on the F, generation.

[9] = 400 ppm, L2 larvae on treated artificial diet, 5 days incubation
[10] = 400 ppm, eggs 0-24 h old on artificial diet, 4 days incubation
[11] = 400 ppm, mixed-age aphids on sprayed sunflower leaf discs, 6 days incubation
[12] = 400 ppm, L1 larvae on sprayed cotton leaf discs, 3 days after treatment
[13] = 400 ppm, systemic, roots of infested pea seedlings in test solution, 6 days

Measured: mortality at 400 ppm

COc1ccc(Cn2cc3cc(C)c(NC(=O)c4cc(OC)nn4-c4ncccc4Cl)c(C(=O)NC(C)C)c3n2)cc1 [P.34, 6-{[2-(3-chloro-pyridin-2-yl)-5-methoxy-2H-pyrazole-3-carbonyl]-amino}-2-(4-methoxy-benzyl)-5-methyl-2H-indazole-7-carboxylic acid isopropyl amide]
> 80%: [1] | [2] | [3] | [4] | [5] | [6]

COc1cc(C(=O)Nc2c(C)cc3cn(Cc4ccccc4)nc3c2C(=O)NC(C)C)n(-c2ncccc2Cl)n1 [P.33]
> 80%: [1] | [7] | [2] | [3] | [4] | [5]

COc1cc(C(=O)Nc2c(C)cc3cnn(CC#N)c3c2C(=O)NC(C)C)n(-c2ncccc2Cl)n1 [P.14]
> 80%: [1] | [2] | [3] | [4] | [5] | [6]

CCCCCCCC/C=C\CCCCCCCC(=O)n1cc2cc(C)c(NC(=O)c3cc(OC)nn3-c3ncccc3Cl)c(C(=O)NC(C)C)c2n1 [P.25]
> 80%: [1]; [9] | [2]; [10] | [3]; 400 ppm, mixed-age thrips on sprayed sunflower leaf discs, 6 days incubation | [4]; [11] | [5]; [12]

COc1cc(C(=O)Nc2c(C)cc3cn(CC(F)(F)F)nc3c2C(=O)NC(C)C)n(-c2ncccc2Cl)n1 [P.10]
> 80%: [1] | [2] | [3] | [4] | [5]

CCCCCCOCCOC(=O)n1cc2cc(C)c(NC(=O)c3cc(OC)nn3-c3ncccc3Cl)c(C(=O)NC(C)C)c2n1 [P.24]
> 80%: [1] | [7] | [2] | [4] | [5] | [6]

CCS(=O)(=O)N(C)Cn1ncc2cc(C)c(NC(=O)c3cc(OC)nn3-c3ncccc3Cl)c(C(=O)NC(C)C)c21 [P.18]
> 80%: [1] | [2] | [4] | [5] | [6]

CCCCCCCCCCOCCOC(=O)n1cc2cc(C)c(NC(=O)c3cc(OC)nn3-c3ncccc3Cl)c(C(=O)NC(C)(C)C)c2n1 [P.28]
> 80%: [1]; [9] | [2]; [10] | [4]; [11] | [5]; [12] | [6]; [13]

COCn1cc2cc(C)c(NC(=O)c3cc(OC)nn3-c3ncccc3Cl)c(C(=O)NC(C)C)c2n1 [P.3]
> 80%: [1] | [2] | [3] | [4] | [5] | [6]

COCCOCn1cc2cc(C)c(NC(=O)c3cc(OC)nn3-c3ncccc3Cl)c(C(=O)NC(C)C)c2n1 [P.12, 6-{[2-(3-chloro-pyridin-2-yl)-5-methoxy-2H-pyrazole-3-carbonyl]-amino}-2-(2-methoxy-ethoxymethyl)-5-methyl-2H-indazole-7-carboxylic acid isopropylamide]
> 80%: [8] | [1] | [2] | [3] | [4] | [5] | [6]

COc1cc(C(=O)Nc2c(C)cc3cn(C(=O)CC(C)(C)C)nc3c2C(=O)NC(C)C)n(-c2ncccc2Cl)n1 [P.27]
> 80%: [1] | [7] | [2] | [3] | [4] | [5] | [6]

CCCCCCCCCCCCCCCCCCOCCOC(=O)n1cc2cc(C)c(NC(=O)c3cc(OC)nn3-c3ncccc3Cl)c(C(=O)NC(C)C)c2n1 [P.30]
> 80%: [1]; [9] | [7]; [9] | [2]; [10] | [4]; [11] | [5]; [12] | [6]; [13]

CCS(=O)(=O)N(C)Cn1cc2cc(C)c(NC(=O)c3cc(OC)nn3-c3ncccc3Cl)c(C(=O)NC(C)C)c2n1 [P.17]
> 80%: [1] | [2] | [4] | [5] | [6]

C#CCn1cc2cc(C)c(NC(=O)c3cc(OC)nn3-c3ncccc3Cl)c(C(=O)NC(C)C)c2n1 [P.7]
> 80%: [1] | [7] | [2] | [3] | [4] | [5] | [6]

CCCCN(CCCC)C(=O)n1cc2cc(C)c(NC(=O)c3cc(OC)nn3-c3ncccc3Cl)c(C(=O)NC(C)C)c2n1 [P.35]
> 80%: [1] | [2] | [3]

C=CCn1cc2cc(C)c(NC(=O)c3cc(OC)nn3-c3ncccc3Cl)c(C(=O)NC(C)C)c2n1 [P.8]
> 80%: [1] | [7] | [2] | [3] | [4] | [5] | [6]

COCn1cc2cc(Cl)c(NC(=O)c3cc(C(F)(F)F)nn3-c3ncccc3Cl)c(C(=O)NC(C)C)c2n1 [P.6]
> 80%: [1] | [7] | [2] | [3] | [4] | [5] | [6]

COC(=O)N(C)Cn1ncc2cc(C)c(NC(=O)c3cc(OC)nn3-c3ncccc3Cl)c(C(=O)NC(C)C)c21 [P.15]
> 80%: [1] | [7] | [2] | [3] | [4] | [5] | [6]

COc1cc(C(=O)Nc2c(C)cc3cn(C(=O)N(C)c4ccccc4)nc3c2C(=O)NC(C)C)n(-c2ncccc2Cl)n1 [P.36]
> 80%: [1] | [2] | [3] | [6]

COc1cc(C(=O)Nc2c(C)cc3cn(C(=O)C4(C)CCCCC4)nc3c2C(=O)NC(C)C)n(-c2ncccc2Cl)n1 [P.32]
> 80%: [1] | [7] | [2] | [3] | [4] | [5] | [6]

COC(=O)N(C)Cn1cc2cc(C)c(NC(=O)c3cc(OC)nn3-c3ncccc3Cl)c(C(=O)NC(C)C)c2n1 [P.11]
> 80%: [1] | [7] | [2] | [3] | [4] | [5] | [6]

COCCOCn1ncc2cc(C)c(NC(=O)c3cc(OC)nn3-c3ncccc3Cl)c(C(=O)NC(C)C)c21 [P.13, 6-{[2-(3-chloro-pyridin-2-yl)-5-methoxy-2H-pyrazole-3-carbonyl]-amino}-1-(2-methoxy-ethoxymethyl)-5-methyl-1H-indazole-7-carboxylic acid isopropylamide]
> 80%: [1] | [2] | [3] | [4] | [5] | [6]
